Measured values reported in ChEMBL document CHEMBL1201862, “PubChem BioAssay data set” (2004).
Active and inactive are the calls of the source.

Assays:
[1] = test system: HeLa; assay: Cytotoxicity counterscreen assay for transcriptional activators of heat shock protein 70 (Hsp70). [Related pubchem assays: 1203, 1252 ]; assay type: functional; settings: Homo sapiens;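 further: cells exposed to compound for 16 hours before readout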
[2] = target: Inward rectifier potassium channel 2 (Mus musculus, UniProt P35561); assay: Manual electrophysiological patch clamp assay for SAR compounds that inhibit/block inward-rectifying potassium ion channel Kir2.1. [Related pubchem assays: 1843 (Summary assay for Kir2.1 inhibitor assays.), 1672 (Primary HTS of 305616 compounds where 2592 were identified as active.)]; assay type: functional
[3] = HIV-1 Env-mediated cell fusion inhibitors, dose response, CCR5-tropic Env (AID 2279); assay type: functional
[4] = target: Induced myeloid leukemia cell differentiation protein Mcl-1 (Homo sapiens, UniProt Q07820); assay type: functional
[5] = target: T1, Calpain-2 catalytic subunit (Sus scrofa, UniProt P43367); assay: pig calpain II inhibitor potency, dose response, biochemical, fluorogenic peptide substrate (AID 1420); assay type: functional
T1 sequence (P43367 whole entry): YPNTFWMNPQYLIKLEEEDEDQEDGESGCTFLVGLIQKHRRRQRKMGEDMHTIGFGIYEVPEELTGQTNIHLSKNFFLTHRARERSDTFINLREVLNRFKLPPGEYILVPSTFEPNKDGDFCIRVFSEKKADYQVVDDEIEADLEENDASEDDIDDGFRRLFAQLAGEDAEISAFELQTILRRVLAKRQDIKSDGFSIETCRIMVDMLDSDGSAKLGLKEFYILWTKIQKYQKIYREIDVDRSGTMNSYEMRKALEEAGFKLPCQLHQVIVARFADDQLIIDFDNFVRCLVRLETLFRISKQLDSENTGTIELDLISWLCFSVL

[6] = target: T2, Aminopeptidase N (Plasmodium falciparum FcB1/Columbia, UniProt O96935); assay: P. falciparum M1AAP inhibitors, biochemical, fluorogenic H-Leu-NHMec substrate, 1536-well (AID 1445); parameters: species or system Plasmodium falciparum 3D7, 3D7
T2 sequence (O96935 whole entry): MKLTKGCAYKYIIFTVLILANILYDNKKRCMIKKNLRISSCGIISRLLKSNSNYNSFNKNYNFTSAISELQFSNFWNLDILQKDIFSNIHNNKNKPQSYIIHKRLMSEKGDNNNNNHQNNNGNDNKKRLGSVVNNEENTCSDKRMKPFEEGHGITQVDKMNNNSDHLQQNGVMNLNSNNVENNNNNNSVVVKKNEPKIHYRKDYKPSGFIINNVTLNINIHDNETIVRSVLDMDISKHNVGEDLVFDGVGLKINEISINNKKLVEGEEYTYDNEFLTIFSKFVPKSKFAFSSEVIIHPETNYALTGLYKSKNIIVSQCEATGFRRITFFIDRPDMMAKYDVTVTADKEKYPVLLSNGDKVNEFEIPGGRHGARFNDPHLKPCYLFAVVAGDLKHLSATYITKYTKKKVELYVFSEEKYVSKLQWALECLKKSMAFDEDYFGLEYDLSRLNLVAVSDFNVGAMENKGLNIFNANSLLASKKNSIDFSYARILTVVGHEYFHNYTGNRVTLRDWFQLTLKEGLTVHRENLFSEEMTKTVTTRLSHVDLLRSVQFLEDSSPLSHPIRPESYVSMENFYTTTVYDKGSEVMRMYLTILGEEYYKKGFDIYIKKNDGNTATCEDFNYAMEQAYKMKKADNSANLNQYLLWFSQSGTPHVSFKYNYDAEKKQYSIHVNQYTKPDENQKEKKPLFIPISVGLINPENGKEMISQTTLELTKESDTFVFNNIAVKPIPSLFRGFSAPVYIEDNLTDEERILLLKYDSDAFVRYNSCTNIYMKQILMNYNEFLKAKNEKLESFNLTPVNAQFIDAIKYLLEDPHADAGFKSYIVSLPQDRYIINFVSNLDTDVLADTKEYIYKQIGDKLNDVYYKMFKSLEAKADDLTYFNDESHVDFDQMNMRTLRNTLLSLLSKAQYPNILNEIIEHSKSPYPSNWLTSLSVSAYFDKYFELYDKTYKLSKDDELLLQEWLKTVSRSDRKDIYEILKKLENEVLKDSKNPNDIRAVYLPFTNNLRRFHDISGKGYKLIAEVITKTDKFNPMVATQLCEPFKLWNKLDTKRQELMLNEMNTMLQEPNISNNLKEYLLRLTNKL

[7] = target: Estrogen receptor beta (Homo sapiens, UniProt Q92731); assay: ERβ–SRC-3 coactivator interaction inhibitors, confirmation, orthogonal assay, biochemical, ELISA, streptavidin-HRP readout (AID 1060)
[8] = target: Large T antigen (Simian virus 40, UniProt P03070); assay type: functional, Betapolyomavirus macacae;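 further: Confirmatory-stage PubChem screen for compounds that inhibit SV40 T antigen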
[9] = cytotoxicity in HPDE-C7 cells, cell-based, fluorescence, HTS (AID 430); assay type: functional; settings: Homo sapiens
[10] = cytotoxicity in KRAS-transformed pancreatic duct cells, primary screen, cell-based, fluorescence, HTS (AID 431); assay type: functional; settings: Homo sapiens;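 further: cell line used: HPDE-C7K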
[11] = Counterscreen for IDE inhibitors: Luminescence-based cell-based high throughput dose response assay to identify compounds that are cytotoxic to HEK cells. [Related pubchem assays: 434962 (Primary screen (IDE inhibitors in singlicate)), 449730 (Counterscreen (Cytotoxicity in triplicate)), 435028 (Confirmation (IDE inhibitors in triplicate)) …; assay type: functional; settings: HEK293
[12] = target: T3, Insulin-degrading enzyme (Homo sapiens, UniProt P14735); assay: Dose Response: Fluorescence polarization-based cell-based high throughput dose response assay for inhibitors of insulin-degrading enzyme (IDE). [Related pubchem assays: 434962 (Primary screen (IDE inhibitors in singlicate)), 449730 (Counterscreen (Cytotoxicity in triplicate)), 435028 (Confirmation (IDE inhibitors in triplicate)), 434984 (Summary …; assay type: functional
T3 sequence (P14735 whole entry): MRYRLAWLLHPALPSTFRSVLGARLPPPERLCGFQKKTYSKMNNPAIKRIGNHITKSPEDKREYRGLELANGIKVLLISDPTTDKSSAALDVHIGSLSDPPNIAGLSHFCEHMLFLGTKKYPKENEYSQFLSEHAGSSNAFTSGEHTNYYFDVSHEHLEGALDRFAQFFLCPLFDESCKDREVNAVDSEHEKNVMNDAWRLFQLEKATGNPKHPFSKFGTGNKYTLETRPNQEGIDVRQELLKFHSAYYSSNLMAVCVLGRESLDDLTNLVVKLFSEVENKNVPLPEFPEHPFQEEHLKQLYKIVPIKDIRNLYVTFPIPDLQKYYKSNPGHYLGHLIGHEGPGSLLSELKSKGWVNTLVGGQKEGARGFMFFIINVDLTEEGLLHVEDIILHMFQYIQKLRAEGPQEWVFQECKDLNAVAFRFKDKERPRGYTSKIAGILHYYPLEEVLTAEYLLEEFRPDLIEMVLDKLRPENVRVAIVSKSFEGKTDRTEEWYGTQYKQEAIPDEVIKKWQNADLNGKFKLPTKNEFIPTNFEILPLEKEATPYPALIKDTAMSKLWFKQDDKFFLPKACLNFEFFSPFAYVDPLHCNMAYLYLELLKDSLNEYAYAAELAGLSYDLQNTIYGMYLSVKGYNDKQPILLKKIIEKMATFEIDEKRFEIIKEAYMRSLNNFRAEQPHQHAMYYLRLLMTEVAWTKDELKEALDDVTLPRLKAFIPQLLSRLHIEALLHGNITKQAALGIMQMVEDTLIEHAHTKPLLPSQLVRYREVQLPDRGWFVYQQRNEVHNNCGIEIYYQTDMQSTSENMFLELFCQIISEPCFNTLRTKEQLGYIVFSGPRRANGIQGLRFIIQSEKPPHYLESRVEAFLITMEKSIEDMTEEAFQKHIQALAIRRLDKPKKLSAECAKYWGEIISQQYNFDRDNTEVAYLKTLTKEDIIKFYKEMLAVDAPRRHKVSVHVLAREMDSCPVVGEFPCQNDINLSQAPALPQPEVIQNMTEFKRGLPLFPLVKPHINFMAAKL

[13] = target: Photoreceptor-specific nuclear receptor (Homo sapiens, UniProt Q9Y5X4); assay type: functional;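 further: potency for compounds that break the NR2E3 corepressor complex and count as activators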
[14] = target: Peroxisome proliferator-activated receptor gamma/Nuclear receptor corepressor 2 (Homo sapiens, UniProt P37231+Q9Y618); assay type: functional
[15] = target: NS3 (Hepatitis C virus, UniProt A3EZJ3); assay: PubChem AID 2173; parameters: species or system Hepacivirus hominis
[16] = target: Peroxisome proliferator-activated receptor gamma/Nuclear receptor coactivator 3 (Homo sapiens, UniProt P37231); assay type: functional;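 further: agonist potency for raising coactivator recruitment to the receptor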
[17] = target: Peroxisome proliferator-activated receptor gamma/Nuclear receptor coactivator 1 (Homo sapiens, UniProt P37231); assay type: functional;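 further: agonist potency as compounds enhance coactivator SRC-1 recruitment to PPARgamma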
[18] = target: Peroxisome proliferator-activated receptor gamma/Nuclear receptor coactivator 2 (Homo sapiens, UniProt P37231); assay type: functional;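 further: agonist potency for raising coactivator recruitment to the receptor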
[19] = target: T4, Heat shock factor protein 1 (Mus musculus, UniProt P38532); assay: inhibition of MG132-induced HSE-luciferase signal, confirmation, cell-based, NIH3T3, luminescence, dose retest (AID 2382); assay type: functional;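 further: NIH3T3 fibroblasts with HSF1-driven luciferase reporter stressed by proteasome inhibitor MG132; luminescence from HSF1-driven luciferase expression after 8 hours of MG132 stress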
T4 sequence (P38532 whole entry): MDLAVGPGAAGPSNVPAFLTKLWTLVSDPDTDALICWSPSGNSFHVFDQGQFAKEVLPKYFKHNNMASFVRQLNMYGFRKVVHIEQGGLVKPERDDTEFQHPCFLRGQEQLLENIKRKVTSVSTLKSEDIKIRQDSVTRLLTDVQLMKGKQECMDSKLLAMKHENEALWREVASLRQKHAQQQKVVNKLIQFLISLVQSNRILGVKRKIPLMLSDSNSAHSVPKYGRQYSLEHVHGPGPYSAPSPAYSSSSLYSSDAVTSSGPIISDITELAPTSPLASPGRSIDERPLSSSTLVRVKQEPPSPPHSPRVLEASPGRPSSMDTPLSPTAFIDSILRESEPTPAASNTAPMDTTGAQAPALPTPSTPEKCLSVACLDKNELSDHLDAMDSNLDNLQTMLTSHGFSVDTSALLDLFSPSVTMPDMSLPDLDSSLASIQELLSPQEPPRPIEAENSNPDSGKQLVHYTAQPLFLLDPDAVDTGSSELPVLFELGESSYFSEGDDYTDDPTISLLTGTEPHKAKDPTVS

[20] = Luminescence Cell-Based Dose Confirmation HTS to Identify Activators of 5'UTR Stem-Loop Driven Alpha-Synuclein mRNA Translation in H4 Neuroglioblastoma Cells. [Related pubchem assays: 1829 (Project Summary), 1814 (Primary HTS)]; assay type: functional
[21] = Luminescence Cell-Based Dose Response HTS to Identify Activators of Luciferase Translation or Activity in H4 […] Cells. [Related pubchem assays: 1829 (Project Summary), 1814 (Primary HTS)]; assay type: functional
[22] = C. albicans growth with fluconazole, confirmation, fluorescence, retest (AID 2467); assay type: functional, cell-based
[23] = M. tuberculosis H37Rv growth inhibitors, H37Rv strain (AID 1626); assay type: functional
[24] = NIH-3T3 fibroblast cytotoxicity, dose response, cytotoxicity control, cell-based, fluorescence, Alamar Blue, secondary assay (AID 2327); assay type: functional;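 further: NIH-3T3 mouse fibroblasts cultured with fluconazole at 8 µg/mL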
[25] = Luminescence-based counterscreen assay for KLF5 inhibitors: dose response cell-based high throughput screening assay to identify cytotoxic compounds using the IEC-6 intestinal epithelial cell line. [Related pubchem assays: 1700 (Primary screen.), 1834 (Confirmation screen.), 1858 (Summary AID.), 1905 (Counterscreen.)]; assay type: functional
[26] = Luminescence Cell-Based Dose Response HTS to Identify Inhibitors of 5'UTR Stem-Loop Driven Prion Protein mRNA Translation in H4 Neuroglioblastoma Cells. [Related pubchem assays: 1827 (Project Summary), 1813 (Primary HTS)]; assay type: functional
[27] = non-specific cell cytotoxicity, dose response, cytotoxicity control for PAX8 inhibitor project, plate reader, dry powder samples (AID 743021); assay type: functional, cell-based
[28] = target: Paired box protein Pax-8 (Homo sapiens, UniProt Q06710); assay: inhibitors of PAX8-driven TPO luciferase reporter, dose response, RMG-I cells, cherry-pick (AID 687027); assay type: functional, cell-based;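 further: luciferase reporter driven by Pax8 target thyroperoxidase promoter measured by SteadyGlo luminescence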
[29] = inhibitors of SNCA 5'UTR-driven reporter translation, confirmation, H4 neuroglioma cells, luminescence (AID 1988); assay type: functional, cell-based
[30] = inhibitors of firefly luciferase expression or activity, dose response, H4 neuroglioma cells, luminescence (AID 1990); assay type: functional, cell-based
[31] = Luminescence Cell-Based Dose Confirmation HTS to Identify Inhibitors of Polyadenylation.; assay type: functional

Sequence of Induced myeloid leukemia cell differentiation protein Mcl-1 (Q07820 whole entry): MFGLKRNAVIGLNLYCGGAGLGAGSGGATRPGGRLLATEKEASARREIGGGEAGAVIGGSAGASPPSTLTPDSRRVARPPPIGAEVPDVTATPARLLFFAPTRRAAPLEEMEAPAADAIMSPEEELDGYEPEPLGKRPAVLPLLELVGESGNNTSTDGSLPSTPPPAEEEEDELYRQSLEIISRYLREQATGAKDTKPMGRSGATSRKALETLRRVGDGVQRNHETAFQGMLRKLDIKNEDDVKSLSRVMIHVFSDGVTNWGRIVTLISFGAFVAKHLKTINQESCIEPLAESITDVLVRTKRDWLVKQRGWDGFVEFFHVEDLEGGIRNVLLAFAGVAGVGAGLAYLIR
Sequence of Peroxisome proliferator-activated receptor gamma/Nuclear receptor coactivator 1 (P37231 whole entry): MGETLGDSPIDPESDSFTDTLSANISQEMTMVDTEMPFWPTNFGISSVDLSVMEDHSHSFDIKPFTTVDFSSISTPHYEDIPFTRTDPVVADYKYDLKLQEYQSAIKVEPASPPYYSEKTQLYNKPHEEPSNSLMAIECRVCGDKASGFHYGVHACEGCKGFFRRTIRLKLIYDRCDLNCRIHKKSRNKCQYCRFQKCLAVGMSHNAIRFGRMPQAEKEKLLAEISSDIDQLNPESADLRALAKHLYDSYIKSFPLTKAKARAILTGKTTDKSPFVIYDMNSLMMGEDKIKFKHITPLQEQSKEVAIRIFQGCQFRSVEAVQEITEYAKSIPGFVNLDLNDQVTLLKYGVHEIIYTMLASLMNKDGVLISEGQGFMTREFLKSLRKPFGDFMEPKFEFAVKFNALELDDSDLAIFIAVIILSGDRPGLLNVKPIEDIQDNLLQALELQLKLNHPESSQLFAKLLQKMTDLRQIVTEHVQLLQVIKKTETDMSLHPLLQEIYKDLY
Sequence of Peroxisome proliferator-activated receptor gamma/Nuclear receptor coactivator 1 (Q15788 whole entry, further chain): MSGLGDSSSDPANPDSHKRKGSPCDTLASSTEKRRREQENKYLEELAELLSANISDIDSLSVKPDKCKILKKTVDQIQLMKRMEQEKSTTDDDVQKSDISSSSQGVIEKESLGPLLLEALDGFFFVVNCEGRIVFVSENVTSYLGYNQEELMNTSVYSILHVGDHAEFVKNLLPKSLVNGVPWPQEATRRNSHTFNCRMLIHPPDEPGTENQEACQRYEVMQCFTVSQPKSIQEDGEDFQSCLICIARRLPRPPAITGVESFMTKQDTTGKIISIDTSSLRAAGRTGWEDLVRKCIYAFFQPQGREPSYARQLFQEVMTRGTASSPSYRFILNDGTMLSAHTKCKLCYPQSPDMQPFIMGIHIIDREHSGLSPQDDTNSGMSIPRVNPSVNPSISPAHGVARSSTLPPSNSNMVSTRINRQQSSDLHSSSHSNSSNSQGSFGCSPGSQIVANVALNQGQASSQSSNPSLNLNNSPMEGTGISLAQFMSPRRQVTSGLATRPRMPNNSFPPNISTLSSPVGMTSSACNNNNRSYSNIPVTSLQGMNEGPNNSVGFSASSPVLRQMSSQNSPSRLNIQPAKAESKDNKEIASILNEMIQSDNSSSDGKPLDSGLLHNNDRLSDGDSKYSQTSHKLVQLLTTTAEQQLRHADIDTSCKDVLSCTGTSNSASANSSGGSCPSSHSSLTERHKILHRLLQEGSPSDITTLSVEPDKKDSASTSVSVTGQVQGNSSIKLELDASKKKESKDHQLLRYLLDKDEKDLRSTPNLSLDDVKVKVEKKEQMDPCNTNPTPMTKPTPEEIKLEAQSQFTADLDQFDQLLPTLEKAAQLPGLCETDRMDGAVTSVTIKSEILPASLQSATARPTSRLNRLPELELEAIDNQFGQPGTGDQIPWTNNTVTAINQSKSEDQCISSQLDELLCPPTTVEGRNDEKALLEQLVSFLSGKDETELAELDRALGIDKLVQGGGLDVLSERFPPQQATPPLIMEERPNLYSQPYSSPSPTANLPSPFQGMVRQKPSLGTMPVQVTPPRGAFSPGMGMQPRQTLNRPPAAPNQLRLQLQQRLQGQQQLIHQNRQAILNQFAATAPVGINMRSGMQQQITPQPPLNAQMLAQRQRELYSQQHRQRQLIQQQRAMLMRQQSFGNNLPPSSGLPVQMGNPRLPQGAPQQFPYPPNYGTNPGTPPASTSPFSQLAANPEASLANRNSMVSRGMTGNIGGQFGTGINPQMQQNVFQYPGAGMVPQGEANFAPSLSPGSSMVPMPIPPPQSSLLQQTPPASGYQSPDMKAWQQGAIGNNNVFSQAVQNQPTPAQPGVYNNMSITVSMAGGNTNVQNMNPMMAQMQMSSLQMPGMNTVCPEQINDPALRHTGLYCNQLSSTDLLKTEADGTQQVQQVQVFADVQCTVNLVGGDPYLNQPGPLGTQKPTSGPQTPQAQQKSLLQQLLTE
Sequence of Peroxisome proliferator-activated receptor gamma/Nuclear receptor coactivator 2 (P37231 whole entry): as the sequence (P37231 whole entry) above
Sequence of Peroxisome proliferator-activated receptor gamma/Nuclear receptor coactivator 2 (Q15596 whole entry, further chain): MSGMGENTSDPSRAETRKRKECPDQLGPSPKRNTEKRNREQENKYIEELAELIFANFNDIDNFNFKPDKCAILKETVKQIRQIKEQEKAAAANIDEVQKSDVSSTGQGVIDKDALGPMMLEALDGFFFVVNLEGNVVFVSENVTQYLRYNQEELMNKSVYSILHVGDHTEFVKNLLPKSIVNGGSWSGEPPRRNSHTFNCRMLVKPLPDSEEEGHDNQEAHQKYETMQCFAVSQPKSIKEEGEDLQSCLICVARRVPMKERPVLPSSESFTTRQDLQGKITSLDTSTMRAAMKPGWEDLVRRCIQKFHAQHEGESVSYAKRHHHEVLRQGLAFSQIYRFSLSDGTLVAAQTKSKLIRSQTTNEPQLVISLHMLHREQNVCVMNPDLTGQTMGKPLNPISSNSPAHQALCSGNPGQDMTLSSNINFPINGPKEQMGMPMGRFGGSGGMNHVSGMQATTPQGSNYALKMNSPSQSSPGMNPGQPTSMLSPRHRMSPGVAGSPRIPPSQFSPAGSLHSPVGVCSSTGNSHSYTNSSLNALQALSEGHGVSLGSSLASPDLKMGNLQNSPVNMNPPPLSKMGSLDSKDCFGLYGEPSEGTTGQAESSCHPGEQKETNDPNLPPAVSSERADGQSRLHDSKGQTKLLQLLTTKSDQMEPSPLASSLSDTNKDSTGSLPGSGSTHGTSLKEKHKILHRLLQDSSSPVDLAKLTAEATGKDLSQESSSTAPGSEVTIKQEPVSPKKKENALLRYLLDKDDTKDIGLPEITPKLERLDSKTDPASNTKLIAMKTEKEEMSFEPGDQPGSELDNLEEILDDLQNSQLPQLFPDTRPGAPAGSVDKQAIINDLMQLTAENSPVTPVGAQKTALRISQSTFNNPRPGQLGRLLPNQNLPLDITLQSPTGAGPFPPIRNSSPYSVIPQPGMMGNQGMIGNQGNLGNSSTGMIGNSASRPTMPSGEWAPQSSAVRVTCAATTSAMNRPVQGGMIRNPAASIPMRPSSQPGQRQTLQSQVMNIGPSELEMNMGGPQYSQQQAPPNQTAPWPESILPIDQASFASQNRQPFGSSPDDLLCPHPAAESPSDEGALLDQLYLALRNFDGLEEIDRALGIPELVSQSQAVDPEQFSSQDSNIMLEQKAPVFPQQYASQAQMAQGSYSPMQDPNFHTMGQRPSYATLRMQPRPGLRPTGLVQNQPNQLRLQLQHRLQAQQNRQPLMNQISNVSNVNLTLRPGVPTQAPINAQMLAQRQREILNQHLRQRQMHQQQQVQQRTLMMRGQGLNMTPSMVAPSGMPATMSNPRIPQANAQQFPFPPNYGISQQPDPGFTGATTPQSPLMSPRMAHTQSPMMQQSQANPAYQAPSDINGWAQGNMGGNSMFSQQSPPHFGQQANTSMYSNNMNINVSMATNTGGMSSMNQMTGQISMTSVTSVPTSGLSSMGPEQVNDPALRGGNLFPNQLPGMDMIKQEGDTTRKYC
Sequence of Estrogen receptor beta (Q92731 whole entry): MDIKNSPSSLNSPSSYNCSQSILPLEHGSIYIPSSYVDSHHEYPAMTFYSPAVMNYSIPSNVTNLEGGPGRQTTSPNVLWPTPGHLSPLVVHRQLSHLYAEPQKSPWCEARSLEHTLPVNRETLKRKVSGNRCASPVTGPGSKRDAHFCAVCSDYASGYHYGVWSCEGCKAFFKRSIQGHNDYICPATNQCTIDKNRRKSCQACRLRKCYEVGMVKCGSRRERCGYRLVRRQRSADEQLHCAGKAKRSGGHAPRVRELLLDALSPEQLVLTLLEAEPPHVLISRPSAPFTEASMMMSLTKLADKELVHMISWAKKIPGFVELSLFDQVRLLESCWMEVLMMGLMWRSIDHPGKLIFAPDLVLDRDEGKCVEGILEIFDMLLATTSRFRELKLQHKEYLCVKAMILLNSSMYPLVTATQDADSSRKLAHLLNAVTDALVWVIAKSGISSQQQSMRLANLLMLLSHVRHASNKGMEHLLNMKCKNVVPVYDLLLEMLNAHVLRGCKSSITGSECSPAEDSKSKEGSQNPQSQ

## CN(C)/C=C1/NC(=S)NC1=O
[1]
  CC50: > 99 µM (not active)

## COc1ccc(CNCc2ccccc2C)cc1
[2]
  IC50: 9.08 µM (active)

## COc1cc(/C=C2\SC(=S)NC2=O)ccc1OS(=O)(=O)c1ccccc1
[3]
  IC50: 16.5 µM (active)
[4]
  IC50: 2.79 µM (active)
[5]
  IC50: 11.1 µM (not active)
[6]
  IC50: 38.6 µM (active)

## Cc1cc(-c2nc3c4c5c(sc4nc(O)n3n2)CCC5)c(C)o1
[7]
  IC50: 18.6 µM (not active)
[4]
  IC50: 3.05 µM (active)
[8]
  IC50: 24.8 µM (active)

## Cc1cc(C(=O)Nc2sc3c(c2C#N)CCC(C)C3)cs1 (configuration not stated)
[9]
  EC50: > 20 µM (not active)
[10]
  EC50: > 20 µM (not active)

## CC(Oc1ccc2c3c(c(=O)oc2c1)CCCC3)C(=O)NCc1ccncc1 (configuration not stated)
[11]
  IC50: 36.4 µM (not active)
[12]
  IC50: > 55.9 µM (not active)

## Cc1ccc(C(=O)C2=C(O)C(=O)N(Cc3cccnc3)C2c2cccc(Oc3ccccc3)c2)o1 (configuration not stated)
[13]
  IC50: 5.73 µM (active)
[14]
  IC50: 2.46 µM (active)
[15]
  IC50: 6.11 µM (active)

## O=C(Nc1nc(-c2ccccc2)nc2ccccc12)c1ccc(F)cc1
[16]
  EC50: 23 µM (not active)
[17]
  EC50: 17.2 µM (not active)
[18]
  EC50: 13.5 µM (not active)

## COc1cc(/C=N/N=C(/Nc2ccc(C)cc2)c2nc3ccccc3s2)ccc1O
[19]
  EC50: < 0.16 µM (active)
[20]
  EC50: 17.6 µM (active)
[21]
  EC50: 0.154 µM (active)
[22]
  EC50: > 38 µM (not active)
[23]
  IC50: > 100 µM (active)
[24]
  EC50: > 150 µM (inactive)

## C/C(=N\NC(=O)c1[nH]nc2c1CCC2)c1cccs1
[25]
  IC50: 10.1 µM (not active)
[26]
  EC50: 4.49 µM (active)
[27]
  AC50: 8.65 µM (active)
[28]
  AC50: 5.19 µM (active)
[29]
  EC50: 2.95 µM (active)
[30]
  EC50: 4.85 µM (active)

## C/C(=N\NC(=O)COc1ccc(C)cc1[N+](=O)[O-])c1cccs1
[31]
  EC50: > 120 µM (not active)
